This is an account of results in patent US20230157939A1, “PERSONAL CARE COMPOSITIONS WITH ENHANCED SOLUBILITY ACTIVES” (Conopco, Inc., d/b/a UNILEVER, priority 2020, published 2023).

The nature of data set [1]: Odor and H2S generation (H2S test strip) of cystine / cystine derivative samples. Format: physicochemical. The conditions noted are these: summary of the Examples; monitored as H2S. How it is done: Evaluation of Cystine Crystallization and Odor in the Presence of Cystine Derivatives Samples for cystine crystallization evaluation were prepared by dissolving cystine (10 mg) alone or in combination with NDAC (N,N′-diacetyl-L-cystine) (55 mg), NACys (N-acetyl-L-cysteine) (28 mg) or L-cystine diethyl ester dihydrochloride (DEC) (62 mg) in 0.775M NaOH (1 ml) or Epilife™ cell culture media (60 uM calcium chloride, HEPES/bicarbonate buffered; Thermofisher Scientific) (1 ml) and the pH adjusted to 7.0 by adding HCl (12.1M). A hydrogen sulfide (H2S) test strip (Sigma) was placed above the sample solution and the samples sealed. Visual appearance, odor and H2S generation (unchanged test strip white color=no H2S generated; changed test strip brown/black color=H2S generated) were monitored up to 4 months and recorded.

The conditions of data set [2]: according to Zhu, et al.; cited from earlier work.
For data set [3] the following is noted: at 25° C.; cited from earlier work.

Turning to `CCOC(=O)[C@@H](N)CSSC[C@H](N)C(=O)OCC` [DEC, L-Cystine diethyl ester], the “odor of the cystine derivative, in words” value in data set [1] was “unpleasant sulfurous odor”.

As for `CC(=O)N[C@@H](CS)C(=O)O` [NACys, N-Acetyl-L-Cysteine], the “odor of the cystine derivative, in words” value in data set [1] is “upleasant sulfurous odor”.

With `CC(=O)N[C@@H](CSSC[C@H](NC(C)=O)C(=O)O)C(=O)O` [NDAC, N,N′-Diacetyl-L-Cystine], the “inhibitor of cystine crystal growth” value in data set [2] was “not effective”.

Regarding `N[C@@H](CSSC[C@H](N)C(=O)O)C(=O)O` [cystine, L-Cystine], the “solubility of cystine in water” value in data set [3] is 112 µg/mL.
